For 10 compounds, binary diffusion coefficient results are on record in the NIST ThermoML archive (doi:10.1021/je060149b).

The series can be described thus: xn = mol fraction of the nth substance listed. As to conditions: 101 kPa, Liquid, Taylor dispersion method, x1 = 0.

Turning to `CC[C@H](C)[C@H](N)C(=O)O` [2-amino-3-methylpentanoic acid] + O, the binary diffusion coefficient was 6.41e-10 m2/s (293.2 K); 7.44e-10 m2/s (298.2 K); 8.36e-10 m2/s (303.2 K); 1.07e-09 m2/s (313.2 K); 1.33e-09 m2/s (323.2 K); 1.62e-09 m2/s (333.2 K).
As to `NCC(=O)O` [2-aminoacetic acid] + O, the binary diffusion coefficient is, setting by setting: (293.2 K) 9.36e-10 m2/s; (298.2 K) 1.06e-09 m2/s; (303.2 K) 1.22e-09 m2/s; (313.2 K) 1.5e-09 m2/s; (323.2 K) 1.86e-09 m2/s; (333.2 K) 2.22e-09 m2/s.
With `CCCCC(N)C(=O)O` (stereo not given) [2-aminohexanoic acid] + O, the binary diffusion coefficient reads like this: (293.2 K) 6.41e-10 m2/s; (298.2 K) 7.36e-10 m2/s; (303.2 K) 8.27e-10 m2/s; (313.2 K) 1.07e-09 m2/s; (323.2 K) 1.32e-09 m2/s; (333.2 K) 1.6e-09 m2/s.
As to `CCC(N)C(=O)O` (stereo not drawn) [(.+-.)-α-aminobutyric acid] + O, the binary diffusion coefficient runs as follows: (293.2 K) 7.29e-10 m2/s; (298.2 K) 8.39e-10 m2/s; (303.2 K) 9.48e-10 m2/s; (313.2 K) 1.2e-09 m2/s; (323.2 K) 1.49e-09 m2/s; (333.2 K) 1.8e-09 m2/s.
As for `CCC[C@H](N)C(=O)O` [(S)-2-aminopentanoic acid] + O, the binary diffusion coefficient runs as follows: (293.2 K) 6.77e-10 m2/s; (298.2 K) 7.75e-10 m2/s; (303.2 K) 8.79e-10 m2/s; (313.2 K) 1.12e-09 m2/s; (323.2 K) 1.39e-09 m2/s; (333.2 K) 1.69e-09 m2/s.
Turning to `C[C@H](N)C(=O)O` [(S)-2-aminopropanoic acid] + O, the binary diffusion coefficient (293.2 K) turned out to be 8.06e-10 m2/s; the binary diffusion coefficient (298.2 K) was found to be 9.3e-10 m2/s; the binary diffusion coefficient (303.2 K) was found to be 1.04e-09 m2/s; the binary diffusion coefficient (313.2 K) turned out to be 1.31e-09 m2/s; the binary diffusion coefficient (323.2 K) worked out at 1.63e-09 m2/s; the binary diffusion coefficient (333.2 K) was 1.96e-09 m2/s.
Take `CC(C)(C)C(N)C(=O)O` (stereo not drawn) [DL-tert-leucine] + O: the binary diffusion coefficient runs as follows: (293.2 K) 6.31e-10 m2/s; (298.2 K) 7.29e-10 m2/s; (303.2 K) 8.46e-10 m2/s; (313.2 K) 1.06e-09 m2/s; (323.2 K) 1.33e-09 m2/s; (333.2 K) 1.61e-09 m2/s.
Take `CC(C)C[C@H](N)C(=O)O` [L-leucine] + O: the binary diffusion coefficient reads like this: (293.2 K) 6.41e-10 m2/s; (298.2 K) 7.35e-10 m2/s; (303.2 K) 8.24e-10 m2/s; (313.2 K) 1.07e-09 m2/s; (323.2 K) 1.33e-09 m2/s; (333.2 K) 1.6e-09 m2/s.
As to `CC(C)[C@H](N)C(=O)O` [L-valine] + O, the binary diffusion coefficient is, setting by setting: (293.2 K) 6.76e-10 m2/s; (298.2 K) 7.77e-10 m2/s; (303.2 K) 8.91e-10 m2/s; (313.2 K) 1.12e-09 m2/s; (323.2 K) 1.4e-09 m2/s; (333.2 K) 1.7e-09 m2/s.
In the case of `CC[C@@H](C)[C@H](N)C(=O)O` [allo-L-isoleucine] + O, the binary diffusion coefficient amounted to 6.42e-10 m2/s (293.2 K); 7.38e-10 m2/s (298.2 K); 8.44e-10 m2/s (303.2 K); 1.07e-09 m2/s (313.2 K); 1.33e-09 m2/s (323.2 K); 1.61e-09 m2/s (333.2 K).
